These results are taken from publication PMC8416056, “Aspulvinones Suppress Postprandial Hyperglycemia as Potent α-Glucosidase Inhibitors From Aspergillus terreus ASM-1” (Frontiers in Chemistry, 2021).

Like-named read-outs stand apart in the source and are kept apart here.

For assay [1], the target named is α-glucosidase. The settings on record: ref Dewi et al., 2014; cited from earlier work.
Assay [2] concerns the target T1, α-Glucosidase (EC:3.2.1.20, MAL12) (Saccharomyces cerevisiae, UniProt P53341).
T1 construct: purchased
The experiment in a line: biochemical. The method, then:
α-Glucosidase (EC:3.2.1.20, MAL12) from Saccharomyces cerevisiae was dissolved in 0.1 mol/L PBS solutions with a pH of 6.8, and diluted to be a 1.0 U/ml solution. The substrate p-nitrophenyl-[…] (pNPG) was dissolved in PBS to be a 1 mM solution. […] The absorbance of p-nitrophenol was monitored at 405 nm. […] The negative control was performed by adding PBS instead of α-glucosidase, the blank was prepared by adding solvent without tested compounds. The inhibition rate was calculated as Eq. 1: IR% =[(Ac-As)/Ac] × 100% (1) where Ac represents the absorbance of control without sample solution, and As denotes the absorbance of sample.

Assay [3] deals with T2, α-glucosidase (Saccharomyces cerevisiae, UniProt P53341).
T2 construct: purchased
As to the kind of experiment: Fluorescence quenching analysis. Format: binding. The settings on record: for Ksv: quenching constant; for Kq: quenching rate constant, same cell as Ksv; for ∆S: van't Hoff, from 20, 31 and 37 °C (one value per inhibitor, repeated in the grid). The protocol: α-Glucosidase (1 μM) was mixed with different concentrations of inhibitors (0–15 μM) at 20, 31, and 37°C, respectively, and the fluorescence spectra of mixed solutions were determined after equilibration for 5 min at an excitation wavelength of 250 nm. Both the excitation and emission slits were set at 10 nm. The quenching rate constant (Kq), binding constant (Ka), the number of the binding sites (n), and thermodynamic parameters enthalpy change (ΔH) and entropy change (ΔS) were calculated according to the Stern-Volmer Eq. 2 and the van’t Hoff Eqs 3–5, which were listed as follows ([Xu et al., 2019]): F0/F = 1 + Ksv[Q] = 1 + Kqτ0[Q] (2) log((F0-F)/F) = logKa+ nlogQ (3) lnKa= (-1/T(ΔH/R)) + ΔS/R (4) ΔG = ΔH-TΔS (5) Where F0 and F represent the fluorescence intensities in the absence or presence of inhibitor, [Q] denote the concentration of inhibitor, τ0 is the constant of the lifetime of fluorophore (10^–8 s) and R is the gas constant of 8.31 J/(mol × K).

Assay [4] concerns the target T2, α-glucosidase. The experiment in a line: Enzymatic kinetics of α-glucosidase (Lineweaver–Burk, Dixon and secondary plots). Format: biochemical. Particulars: for Inhibition mode: Lineweaver–Burk plots; for KIS: inhibitor binding with enzyme-substrate complex, vertical intercept (1/Vm) versus inhibitor concentration. The method, then:
pNPG with a concentration range of 100–4,000 μM and α-glucosidase were incubated with different concentrations of inhibitor for 10 min, respectively. 20 μl of 1.0 U/ml enzyme solutions were first mixed with 10 μl of different concentrations of inhibitors, then 50 μl PBS solutions were added, and the mixed solutions were incubated at 37°C for 10 min. Subsequently, 20 μl of pNPG solutions (1.25, 2.5, 5, 10 and 20 mM) were added, and the mixed solutions were further incubated at 37°C for 25 min, the absorbance of reaction solution was measured at 405 nm every 3 min. The kinetic parameters, Michaelis–Menten (Km) and maximum velocity (Vmax), were found using Lineweaver–Burk plots to check the mode of α-glucosidase inhibition for compounds 1 and 4. The dissociation constants between inhibitor and enzyme (Ki) were calculated from Dixon plots. Two inhibition constants, KI or KIS, for inhibitor binding with either free or enzyme-substrate complex, were calculated from secondary plots of the slopes of the straight lines ([…]) or vertical intercept (1/Vmax) verse the concentration of inhibitors, respectively ([Jenis et al., 2019]).

Assay [5] has as its target T2, α-glucosidase. The experiment in a line: Circular dichroism spectroscopy of α-glucosidase with inhibitor. The settings on record: after the addition of (molar ratios 20:1 and 40:1), 20°C. Also noted: dose or concentration left out as unconfirmed. Format: binding. The method, then:
The CD measurements were performed in a wavelength range of 190–250 nm at a speed of 60 nm/min. All measurements were carried out at 20°C using 1.0 mm path length quartz cuvette and sodium phosphate buffer (pH 6.8) was considered as a blank. […] All the results were expressed as ellipticity in mill degrees.

In assay [6] the test system is female C57BL/6J mice. As to the kind of experiment: Oral sucrose tolerance test. Format: in vivo. The settings on record: sucrose 2 g/kg BW; for decrease of the AUC (blood glucose, 0–120 min): versus negative control. The protocol:
(§1) Female C57BL/6J mice, 6 weeks old, weighting 16–20 g, were obtained from the Skbex Biotechenology Company Limited (Henan, China). The animals were housed in Experimental Animal Center of Zhoukou Normal University under 12 h light-dark cycle at controlled temperature (22 ± 1°C), and provided with a standard pellet diet and water ad libitum. The mice were adapted to diet and general conditions of vivarium for 1 week before the experiment. After an 16 h fasting, the mice were divided into three groups randomly (eight mice each group). […] Mice were fasted 16 h and then intragastrically (i.g.) administrated the inhibitors, 15 min later, 2 g/kg BW of sucrose or 2 g/kg BW of maltose solution was given i.g. to the animals. Blood samples were taken from the tail vein at 0, 30, 60, and 120 min after sucrose or maltose loading, and blood glucose was measured with Accu-Chek Active glucometer (Roche, Germany). Area under the curve (AUC) over 0–120 min was calculated by the trapezoidal method. All animals were cared under the frame of the China Council on Animal Care and all procedures were approved by the Health Sciences Animal Welfare Committee of Zhoukou Normal University.

The test system of assay [7] is female C57BL/6J mice. Particulars: 25 mg/kg BW i.g. The method, then:
as §1, with “Area under the curve (AUC) over 0–120 min was calculated by the trapezoidal method.” left out

The mark [8] stands for this setting: sample concentration which led to 50% enzyme activity loss, pNPG substrate, pH 6.8, 37°C, read-out: IC50.
The mark [9] stands for this setting: inhibition constant, from Dixon plots.
Setting [10] is: inhibitor binding with free enzyme, slope (Km/Vm) versus inhibitor concentration.

T2 sequence (P53341 whole entry): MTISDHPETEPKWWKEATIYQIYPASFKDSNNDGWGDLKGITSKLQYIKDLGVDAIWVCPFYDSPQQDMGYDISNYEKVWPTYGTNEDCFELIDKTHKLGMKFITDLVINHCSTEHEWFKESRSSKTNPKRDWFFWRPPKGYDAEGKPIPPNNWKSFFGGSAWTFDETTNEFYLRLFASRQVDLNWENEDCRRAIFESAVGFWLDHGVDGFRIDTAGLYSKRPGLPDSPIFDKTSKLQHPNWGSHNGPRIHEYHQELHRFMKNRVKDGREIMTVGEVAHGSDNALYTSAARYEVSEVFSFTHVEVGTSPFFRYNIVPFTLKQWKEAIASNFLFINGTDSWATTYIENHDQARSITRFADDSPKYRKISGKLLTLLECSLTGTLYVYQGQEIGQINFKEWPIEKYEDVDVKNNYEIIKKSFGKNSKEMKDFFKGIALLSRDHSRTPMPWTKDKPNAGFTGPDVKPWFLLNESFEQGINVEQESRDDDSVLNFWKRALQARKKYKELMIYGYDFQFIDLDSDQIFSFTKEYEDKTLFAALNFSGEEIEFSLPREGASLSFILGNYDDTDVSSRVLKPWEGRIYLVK
T1 sequence (P53341 whole entry): as above

On to `O=C1O/C(=C\c2ccc(O)cc2)C(O)=C1c1ccc(O)cc1` [Aspulvinone E], for which the IC50 on α-glucosidase [1] is 2.7 µM.

In assay [2], `CC1(C)CCc2cc(C3=C(O)C(=Cc4ccc5c(c4)CC(C(C)(C)O)O5)OC3=O)ccc2O1` (stereo not shown) [Compound 3, Aspulvinone X] showed an IC50 of 38.6 ± 5.2 µM.

Turning to `CC(C)(O)[C@H]1Cc2cc(/C=C3\OC(=O)C(c4ccc5c(c4)C[C@H](C(C)(C)O)O5)=C3O)ccc2O1` [Compound 5, aspulvinone J-CR], the IC50 in assay [2] worked out at 44.3 ± 8.9 µM.

With `CC(C)=CCc1cc(/C=C2\OC(=O)C(c3cc4c(c(CC=C(C)C)c3)OC(C)(C)C=C4)=C2O)ccc1O` [Compound 1, Aspulvinone V], the IC50 in assay [2] (setting [8]) is 2.2 ± 0.4 µM. Moreover, the results for the “∆G” value on α-glucosidase [3] (31 °C) and at α-glucosidase [3] (37 °C) were -3.32 kcal/mol and -2.94 kcal/mol, respectively. Further, the “binding constants (Ka), order of magnitude” value at α-glucosidase [3] (at the three temperatures) was ~10^5 L/mol. Also, the Kd on α-glucosidase [3] (binding constant, 20 °C, read-out: Ka (converted)) was 9.09 µM; on α-glucosidase [3] (binding constant, 31 °C, read-out: Ka (converted)), 3.27 µM; on α-glucosidase [3] (binding constant, 37 °C, read-out: Ka (converted)) it was 1.79 µM. Moreover, the Ksv at α-glucosidase [3] (20 °C) was determined as 53500 L/mol; at α-glucosidase [3] (31 °C), 78700 L/mol; at α-glucosidase [3] (37 °C) it was 58100 L/mol. The Kq was found to be 5.35e+12 M⁻¹ s⁻¹ on α-glucosidase [3] (20 °C), 7.87e+12 M⁻¹ s⁻¹ on α-glucosidase [3] (31 °C) and 5.81e+12 M⁻¹ s⁻¹ at α-glucosidase [3] (37 °C). Besides, at α-glucosidase [3], the “∆S” value is given as 148.2 J/mol/K. For the same molecule, at α-glucosidase [4], the Inhibition mode entry is “mixed-type”. The Ki turned out to be 6.6 µM on α-glucosidase [4] (setting [9]) and 3.15 µM on α-glucosidase [4] (setting [10]). This molecule also returned a KIS at α-glucosidase [4] of 8.23 µM. For the same molecule, the “change of α-glucosidase CD spectrum (negative peaks at 209 and 222 nm)” value on α-glucosidase [5] is reported as “loss of the α-helix structure”.

`CC(C)=CCc1cc(/C=C2\OC(=O)C(c3cc(CC=C(C)C)c(O)c(CC=C(C)C)c3)=C2O)ccc1O` [Compound 6, aspulvinone R] had an IC50 in assay [2] of 10.8 ± 2.3 µM.

As for `C[C@H]1O[C@H](O[C@H]2[C@H](O)[C@@H](O)[C@@H](O[C@H]3[C@H](O)[C@@H](O)C(O)O[C@@H]3CO)O[C@@H]2CO)[C@H](O)[C@@H](O)[C@@H]1N[C@H]1C=C(CO)[C@@H](O)[C@H](O)[C@H]1O` (stereo partly shown) [Acarbose, reference compound], the “decrease of the AUC (blood glucose, 0–120 min)” value with female C57BL/6J mice [6] (50 mg/kg BW i.g.) is recorded as 11.8%.

For `CC(C)=CCc1cc(C2=C(O)C(=Cc3ccc4c(c3)CC(C(C)(C)O)O4)OC2=O)ccc1O` (stereo not shown) [Compound 2, Aspulvinone W], in assay [2], the IC50 was 32 ± 5.8 µM.

With `O=C1O/C(=C/c2ccc(O)cc2)C(O)=C1c1ccc(O)cc1` [isoaspulvinone E], on α-glucosidase [1], the half-inhibitory concentration (IC50) was 8.92 µM.

Regarding `CC(C)=CCc1cc(/C=C2\OC(=O)C(c3ccc(O)c(CC=C(C)C)c3)=C2O)ccc1O` [Compound 4, aspulvinone H], the “blood glucose rise at 30 and 60 min” value with female C57BL/6J mice [6] (25 mg/kg BW i.g., compared to negative control group) is given as “significantly suppressed”. Further, the “decrease of the AUC (blood glucose, 0–120 min)” value in the assay with female C57BL/6J mice [6] (25 mg/kg BW i.g.) came to 13.2%. In the assay on female C57BL/6J mice [7] (Figure 6C (maltose), versus the negative control group), the “postprandial blood glucose peak” value is on record as “significant decrease”. For the same molecule, in the assay on female C57BL/6J mice [7] (Figure 6D (maltose 2 g/kg BW), text prints 'sucrose tolerance test'), the “reduction of the AUC for postprandial plasma glucose in 2 h” value came to 19.7%. In addition, the IC50 in assay [2] (setting [8]) turned out to be 4.6 ± 1.3 µM. For the same molecule, the “∆G” value on α-glucosidase [3] (31 °C) is -2.99 kcal/mol; at α-glucosidase [3] (37 °C), -2.37 kcal/mol. The Kd on α-glucosidase [3] (Ka, binding constant, 20 °C) was 34.5 µM; at α-glucosidase [3] (Ka, binding constant, 31 °C), 12.7 µM; on α-glucosidase [3] (Ka, binding constant, 37 °C), 4.31 µM; at α-glucosidase [3] (binding constants (Ka), order of magnitude, at the three temperatures) it was roughly 100 µM. Also, the figures for the Ksv on α-glucosidase [3] (20 °C), on α-glucosidase [3] (31 °C) and at α-glucosidase [3] (37 °C) were 56900 L/mol, 55300 L/mol and 60200 L/mol, respectively. Also, the results for the Kq on α-glucosidase [3] (20 °C), on α-glucosidase [3] (31 °C) and on α-glucosidase [3] (37 °C) were 5.69e+12 M⁻¹ s⁻¹, 5.53e+12 M⁻¹ s⁻¹ and 6.02e+12 M⁻¹ s⁻¹, respectively. Also, the “∆S” value on α-glucosidase [3] was 240.1 J/mol/K. In addition, on α-glucosidase [4], the Inhibition mode entry was “mixed-type”. Moreover, the Ki on α-glucosidase [4] (setting [9]) was 6.58 µM; at α-glucosidase [4] (setting [10]), 4.7 µM. This molecule also yielded a KIS at α-glucosidase [4] of 6.62 µM. Further, the “change of α-glucosidase CD spectrum (negative peaks at 209 and 222 nm)” value at α-glucosidase [5] is recorded as “loss of the α-helix structure”.
